Results on nine compounds are retold here after patent US12014835B2, “Methods for evaluating therapeutic benefit of combination therapies” (Vanderbilt University, priority 2020, dated 2024).

Format in all cases: cell-based
The subject of one experiment is PC9 cells. The experiment can be described thus: MuSyC drug combination screen with osimertinib, DIP rate, high-throughput in vitro assay. The settings on record: for synergistic efficacy (in words): drug-synergy diagram; for observed synergistic efficacy (βobs): at the maximum tested dose range. The method, then: FIG. 2A illustrates a high-throughput pipeline for generating dose-response surfaces. Initial drug matrix is prepared on a 384-well plate and transferred to cells seeded at subconfluent densities. Cells are engineered to express a fluorescently tagged histone (H2B-RFP), allowing for cell counts using automated segmentation software. Each condition is imaged every 6-8 h, resulting in growth curves. The growth curves are fit to determine the drug-induced proliferation (DIP) rate (slope of dotted line, vide infra) to quantify drug effect. This matrix of DIP rates is fit to our equation to extract synergy parameters.
MuSyC was applied to evaluate the synergistic potency and efficacy of a 64-drug panel (see Table 1 for drugs, drug classes, nominal targets, and tested concentration ranges) in combination with osimertinib, a mutant EGFR-tyrosine kinase inhibitor recently approved for first-line treatment of EGFR-mutant NSCLC. The selected drugs span a diverse array of cellular targets that can be broadly grouped into four categories: kinases, receptors and channels, epigenetic regulators, and mitotic checkpoints, each with several sub-categories. The combinations were tested in PC9 cells, a canonical model of EGFR-mutant NSCLC using a high-throughput, in vitro, drug-screening assay (FIG. 2A).
Applying this algorithm, synergy parameters (α1, α2, and βobs) were extracted from fitted surfaces for all osimertinib combinations (βobs is the observed synergistic efficacy at the maximum tested dose range).

The next experiment concerns WM115_SKIN. As to the kind of experiment: BRAFi sensitivity, DIP rate. Here is the method: (§1) FIGS. 4A, 4B, and 4C depict data used to identify and characterize the top 200 differentially expressed genes (DEGs) between subclones of a BRAF-mutant melanoma cell line (SKMEL5) with differential sensitivity to BRAFi. FIG. 4A depicts growth curves of differentially sensitive, single-cell-derived subclones from SKMEL5 treated with 8 μM PLX4720. Gray curves represent colony growth according to the clonal fractional proliferation assay (Tyson, D. R. et al., Nature Methods (2012) Vol. 9, pp. 923-928). The average population response is indicated in the black curve. SC01, SC07, and SC10 were subsequently used to identify 200 DEGs. FIG. 4B depicts the top gene set enrichment terms for the identified 200 DEGs. FIG. 4C depicts a distribution of the correlation between the identified 200 DEGs' expression and BRAFi insensitivity. Drug sensitivity was quantified as DIP rate measured in 8 μM PLX4720. The threshold of p value <0.05 is annotated in pink.
(§2) Specifically, gene expression was quantified using RNA sequencing (RNA-seq) and the top 200 differentially expressed genes (DEGs) (FDR<0.001) were identified. […] The correlation was computed of the 200 DEGs' expression to BRAFi sensitivity across a 10-cell-line panel using expression data from Subramanian, A. et al. (2017). in Cell vol. 171, 1437-1452.e17.

The test system of a further experiment is A2058_SKIN. As to the kind of experiment: BRAFi sensitivity, DIP rate. Here is the method: as §1, §2
A further experiment deals with WM88_SKIN. As to the kind of experiment: BRAFi sensitivity, DIP rate. The method, then: as §1, §2
The next experiment deals with SKMEL28_SKIN. The experiment can be described thus: BRAFi sensitivity, DIP rate. The method, then: as §1, §2
For a further experiment, the system named is SKMEL5_SKIN. As to the kind of experiment: BRAFi sensitivity, DIP rate. Here is the method:
as §1, §2

The next experiment deals with WM983B_SKIN. The experiment can be described thus: BRAFi sensitivity, DIP rate. The method, then: as §1, §2
Another experiment has as its system WM2664_SKIN. The experiment can be described thus: BRAFi sensitivity, DIP rate. Here is the method: as §1, §2
The next experiment deals with WM793_SKIN. As to the kind of experiment: BRAFi sensitivity, DIP rate. Here is the method:
as §1, §2

A further experiment concerns WM1799_SKIN. The experiment can be described thus: BRAFi sensitivity, DIP rate. Here is the method:
as §1, §2

For another experiment, the system named is A375_SKIN. As to the kind of experiment: BRAFi sensitivity, DIP rate. The method, then:
as §1, §2

For the next experiment, the system named is A2058. As to the kind of experiment: MuSyC analysis of PLX4720 in combination with NOX5 inhibitor DPI. The settings on record: in combination with PLX4720, A2058 cell line. The source says:
FIG. 4E depicts pairwise comparison between SC01 and SC10 of DEGs (FDR<0.001) identified using DESeq2 (Love, M. I. et al., Genome Biol. (2014) Vol. 15, p. 550). The 200 identified DEGs (ANOVA between three subclones) are in black. The dotted red lines denote ±4-fold change. FIG. 4F depicts the dose-response surface for PLX4270 plus DPI (a NOX5 inhibitor) in the A2058 cell line, using the same format as in FIGS. 2B and 2C.
FIGS. 4G, 4H, and 4I depict additional MuSyC analysis of the effect of the combination therapy with PLX4270 and DPI. FIG. 4G depicts a DSD for NOX5i (DPI) plus BRAFi (PLX4720). FIG. 4H depicts the correlation (Pearson r) of NOX5 expression with observed synergistic efficacy (βobs). FIG. 4I depicts the correlation (Pearson r) of NOX5 expression with synergistic potency, where α2 is DPI's effect on PLX4720 potency. Error bars represent parameter uncertainty calculated in MCMC fitting.
To study NOX5's contribution to the potency or efficacy of BRAFi, PLX4720 was tested in combination with a NOX5 inhibitor, DPI, in a panel of 7 melanoma cell lines selected based on differential NOX5 expression. […] See also, Meyer et al. in Cell Systems (2010) vol 8, pages 97-108, which is hereby incorporated by reference for all purposes.

Setting [1] is: in combination with osimertinib, PC9 cells.

For the compound `CCCCc1oc2ccc(NS(C)(=O)=O)cc2c1C(=O)c1ccc(OCCCN(CCCC)CCCC)cc1` [dronedarone], the “synergistic efficacy (in words)” value with PC9 cells (setting [1]) is given as “most antagonistic”.
Same read-out and setting: under `COC(=O)Nc1nc2ccc(Oc3ccc(NC(=O)Nc4ccccc4)cc3)cc2[nH]1` [GW694590a] stands “synergistically efficacious”.
Consider `CN(C)c1ccc(C(=O)NCCCCCCC(=O)NO)cc1` [M344], for which, in the experiment with PC9 cells (setting [1]), the “increase in efficacy over osimertinib alone” value came out at 125%, the “synergistic potency log(α2): how osimertinib's potency is modulated by the drug” value is −0.90±0.01 and the “observed synergistic efficacy (βobs)” value was found to be 1.25±0.03.
As to `Cn1cc(CNCC2CCN(c3ncc(C(=O)NO)cn3)CC2)c2ccccc21` [quisinostat], in the experiment on PC9 cells (in combination with osimertinib, NSCLC screen), the “total efficacy of the combination (in words)” value was “greatest total efficacy”.
What is called EC50 is the concentration that produces a half-maximal response. With `Cc1cc(Nc2ncc(Cl)c(Nc3ccccc3S(=O)(=O)C(C)C)n2)c(OC(C)C)cc1C1CCNCC1` [ceritinib], the EC50 with PC9 cells (Homo sapiens, PC-9, single agent, PC9 cells, DIP rate) came out at 2.02 µM. Further, in the experiment with PC9 cells (setting [1]), the “synergistic potency log(α2): how osimertinib's potency is modulated by the drug” value worked out at 6.25±0.50 and the “observed synergistic efficacy (βobs)” value was 0.28 ±0.003.
Consider `CCCS(=O)(=O)Nc1ccc(F)c(C(=O)c2c[nH]c3ncc(Cl)cc23)c1F` [PLX4270], for which the “DIP Rate at [8 uM] PLX4270” value in the experiment with WM115_SKIN was 0.013 h⁻¹; in the experiment on A2058_SKIN, 0.030 h⁻¹; with WM88_SKIN, -0.020 h⁻¹; in the experiment on SKMEL28_SKIN, 0.010 h⁻¹; with SKMEL5_SKIN, 0.014 h⁻¹; with WM983B_SKIN it was 0.021 h⁻¹. Besides, the “DIP Rate at [8 uM] PLX4270” value in the experiment on WM2664_SKIN was 0.003 h⁻¹; in the experiment on WM793_SKIN it was 0.015 h⁻¹; with WM1799_SKIN, -0.002 h⁻¹; in the experiment on A375_SKIN, 0.005 h⁻¹.
With `Nc1ccccc1NC(=O)c1ccc(CNC(=O)OCc2cccnc2)cc1` [entinostat], the “observed synergistic efficacy (βobs)” value in the experiment on PC9 cells (setting [1]) was 0.84±0.027.
For the compound `CC[C@]1(O)C[C@@H]2CN(CCc3c([nH]c4ccccc34)[C@@](C(=O)OC)(c3cc4c(cc3OC)N(C)[C@H]3[C@@](O)(C(N)=O)[C@H](O)[C@]5(CC)C=CCN6CC[C@]43[C@@H]65)C2)C1` [vindesine], in the experiment with PC9 cells (setting [1]), the “synergistic efficacy (in words)” value is “upward shift along the axis of synergistic efficacy”.
As for `c1ccc2c(c1)[I+]c1ccccc1-2` [DPI], in the experiment on A2058, the “observed synergistic efficacy (βobs)” value is 1.42 ±0.05.
